Laboratory results published in ChEMBL document CHEMBL3621049, “Imidazole derivatives show anticancer potential by inducing apoptosis and cellular senescence” (2014).
The source made the active and inactive calls.

Tests used:
Type in all cases: functional, cell-based
[1] = tested on: RXF 393; test: Growth inhibition of human RXF393 cells at 10 uM by sulforhodamine B assay
[2] = tested on: SNB-75; test: Growth inhibition of human SNB75 cells at 10 uM by sulforhodamine B assay
[3] = tested on: SR; test: Growth inhibition of human SR cells at 10 uM by sulforhodamine B assay
[4] = tested on: BT-549; test: Growth inhibition of human BT549 cells at 10 uM by sulforhodamine B assay
[5] = tested on: SK-OV-3; test: Growth inhibition of human SKOV3 cells at 10 uM by sulforhodamine B assay
[6] = tested on: 786-0; test: Growth inhibition of human 786-0 cells at 10 uM by sulforhodamine B assay
[7] = tested on: IGROV-1; test: Growth inhibition of human IGROV1 cells at 10 uM by sulforhodamine B assay
[8] = tested on: M14; test: Growth inhibition of human M14 cells at 10 uM by sulforhodamine B assay
[9] = tested on: MCF7; test: Growth inhibition of human MCF7 cells at 10 uM by sulforhodamine B assay
[10] = tested on: HOP-62; test: Growth inhibition of human HOP62 cells at 10 uM by sulforhodamine B assay
[11] = tested on: KM12; test: Growth inhibition of human KM12 cells at 10 uM by sulforhodamine B assay
[12] = tested on: MOLT-4; test: Growth inhibition of human MOLT4 cells at 10 uM by sulforhodamine B assay
[13] = tested on: DU-145; test: Growth inhibition of human DU145 cells at 10 uM by sulforhodamine B assay
[14] = tested on: SF-268; test: Growth inhibition of human SF268 cells at 10 uM by sulforhodamine B assay
[15] = tested on: OVCAR-5; test: Growth inhibition of human OVCAR5 cells at 10 uM by sulforhodamine B assay
[16] = tested on: NCI-H23; test: Growth inhibition of human NCI-H23 cells at 10 uM by sulforhodamine B assay
[17] = tested on: SNB-19; test: Growth inhibition of human SNB19 cells at 10 uM by sulforhodamine B assay
[18] = tested on: U-251; test: Growth inhibition of human U251 cells at 10 uM by sulforhodamine B assay
[19] = tested on: A549; test: Growth inhibition of human A549/ATCC cells at 10 uM by sulforhodamine B assay
[20] = tested on: RPMI-8226; test: Growth inhibition of human RPMI8226 cells at 10 uM by sulforhodamine B assay
[21] = tested on: HCT-116; test: Growth inhibition of human HCT116 cells at 10 uM by sulforhodamine B assay
[22] = tested on: OVCAR-8; test: Growth inhibition of human OVCAR8 cells at 10 uM by sulforhodamine B assay
[23] = tested on: HL-60(TB); test: Growth inhibition of human HL-60(TB) cells at 10 uM by sulforhodamine B assay
[24] = tested on: MDA-MB-231; test: Growth inhibition of human MDA-MB-231 cells at 10 uM by sulforhodamine B assay
[25] = tested on: Hs-578T; test: Growth inhibition of human Hs 578T cells at 10 uM by sulforhodamine B assay
[26] = tested on: A498; test: Growth inhibition of human A498 cells at 10 uM by sulforhodamine B assay
[27] = tested on: SF-295; test: Growth inhibition of human SF295 cells at 10 uM by sulforhodamine B assay
[28] = tested on: SW-620; test: Growth inhibition of human SW620 cells at 10 uM by sulforhodamine B assay
[29] = tested on: UACC-62; test: Growth inhibition of human UACC62 cells at 10 uM by sulforhodamine B assay
[30] = tested on: SN12C; test: Growth inhibition of human SN12C cells at 10 uM by sulforhodamine B assay
[31] = tested on: MDA-MB-468; test: Growth inhibition of human MDA-MB-468 cells at 10 uM by sulforhodamine B assay
[32] = tested on: HT-29; test: Growth inhibition of human HT-29 cells at 10 uM by sulforhodamine B assay
[33] = tested on: OVCAR-3; test: Growth inhibition of human OVCAR3 cells at 10 uM by sulforhodamine B assay
[34] = tested on: T47D; test: Growth inhibition of human T47D cells at 10 uM by sulforhodamine B assay
[35] = tested on: TK-10; test: Growth inhibition of human TK10 cells at 10 uM by sulforhodamine B assay
[36] = tested on: SK-MEL-28; test: Growth inhibition of human SK-MEL-28 cells at 10 uM by sulforhodamine B assay
[37] = tested on: NCI/ADR-RES; test: Growth inhibition of human NCI/ADR-RES cells at 10 uM by sulforhodamine B assay
[38] = tested on: ACHN; test: Growth inhibition of human ACHN cells at 10 uM by sulforhodamine B assay
[39] = tested on: HCC 2998; test: Growth inhibition of human HCC2998 cells at 10 uM by sulforhodamine B assay
[40] = tested on: COLO 205; test: Growth inhibition of human COLO205 cells at 10 uM by sulforhodamine B assay
[41] = tested on: UO-31; test: Growth inhibition of human UO31 cells at 10 uM by sulforhodamine B assay
[42] = tested on: NCI-H522; test: Growth inhibition of human NCI-H522 cells at 10 uM by sulforhodamine B assay
[43] = tested on: SK-MEL-2; test: Growth inhibition of human SK-MEL-2 cells at 10 uM by sulforhodamine B assay
[44] = tested on: MDA-MB-435; test: Growth inhibition of human MDA-MB-435 cells at 10 uM by sulforhodamine B assay
[45] = tested on: LOX IMVI; test: Growth inhibition of human LOXIMVI cells at 10 uM by sulforhodamine B assay
[46] = tested on: PC-3; test: Growth inhibition of human PC3 cells at 10 uM by sulforhodamine B assay
[47] = tested on: SK-MEL-5; test: Growth inhibition of human SK-MEL-5 cells at 10 uM by sulforhodamine B assay
[48] = tested on: UACC-257; test: Growth inhibition of human UACC257 cells at 10 uM by sulforhodamine B assay
[49] = tested on: SF-539; test: Growth inhibition of human SF539 cells at 10 uM by sulforhodamine B assay
[50] = tested on: NCI-H226; test: Growth inhibition of human NCI-H226 cells at 10 uM by sulforhodamine B assay
[51] = tested on: NCI-H460; test: Growth inhibition of human NCI-H460 cells at 10 uM by sulforhodamine B assay
[52] = tested on: HCT-15; test: Growth inhibition of human HCT15 cells at 10 uM by sulforhodamine B assay
[53] = tested on: CCRF-CEM; test: Growth inhibition of human CCRF-CEM cells at 10 uM by sulforhodamine B assay
[54] = tested on: K562; test: Growth inhibition of human K562 cells at 10 uM by sulforhodamine B assay
[55] = tested on: OVCAR-4; test: Growth inhibition of human OVCAR4 cells at 10 uM by sulforhodamine B assay
[56] = tested on: CAKI-1; test: Growth inhibition of human Caki1 cells at 10 uM by sulforhodamine B assay
[57] = tested on: Malme-3M; test: Growth inhibition of human MALME-3M cells at 10 uM by sulforhodamine B assay
[58] = tested on: NCI-H322M; test: Growth inhibition of human NCI-H322M cells at 10 uM by sulforhodamine B assay
[59] = tested on: HOP-92; test: Growth inhibition of human HOP92 cells at 10 uM by sulforhodamine B assay

Measured: growth inhibition (GI)

COc1cc(-c2nc(-c3ccccc3)c(-c3ccccc3)n2C2CCCCC2)ccc1OC1CCCC1
active: all assays above

C#CCn1c(-c2ccc(OC3CCCC3)c(OC)c2)nc(-c2ccccc2)c1-c1ccccc1
active: all assays above
